From patent publication US7906507B2, “Oxadiazoanthracene compounds for the treatment of diabetes” (TransTech Pharma, Inc., priority 2008, dated 2011)

Molecular target: T1, cloned human GLP-1 receptor (Homo sapiens, UniProt P43220)
T1 construct: expressed in transfected cells; host or cells: CHO or HEK-293 cells
Test: Functional cell-based assay: cAMP functional assay
Conditions: for Emax: 0.5 h, percentage relative to maximal GLP-1-induced cAMP accumulation, na = not active in the assay, read-out: % activation
How it was run: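 Monolayer cells incubated 30 min at 37 °C with compounds (0.0001–100 μM) in IMDM containing 100 μM RO 20-1724 PDE inhibitor, 0.1% BSA and 2% DMSO. cAMP measured by HTRF.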

T1 sequence (P43220 24-463): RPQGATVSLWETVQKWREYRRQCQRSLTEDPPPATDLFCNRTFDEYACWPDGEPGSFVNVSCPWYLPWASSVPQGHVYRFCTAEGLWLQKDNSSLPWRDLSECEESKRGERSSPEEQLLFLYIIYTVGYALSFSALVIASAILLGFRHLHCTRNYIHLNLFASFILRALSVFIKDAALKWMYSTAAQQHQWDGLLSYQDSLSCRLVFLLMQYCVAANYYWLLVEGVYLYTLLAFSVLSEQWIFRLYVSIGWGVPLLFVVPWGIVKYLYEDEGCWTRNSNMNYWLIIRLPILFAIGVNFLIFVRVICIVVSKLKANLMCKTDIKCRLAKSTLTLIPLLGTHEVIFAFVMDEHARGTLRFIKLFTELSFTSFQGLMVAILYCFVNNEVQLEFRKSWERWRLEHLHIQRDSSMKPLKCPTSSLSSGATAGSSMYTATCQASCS

Compound | EC50 [nM] | Emax [%]
N#Cc1ccc(-c2ccc(C[C@H](NC(=O)[C@@H]3Cc4cc5c(cc4CN3Cc3ccccc3Cl)OC(c3ccc(OCc4ccc(Cl)c(Cl)c4)cc3)C(=O)N5)C(=O)O)cc2)cc1 (stereo partly drawn) [Example 42, (S)-2-({(S)-6-(2-Chloro-benzyl)-3-[4-(3,4-dichloro-benzyloxy)-phenyl]-2-oxo-2,3,5,6,7,8-hexahydro-1H-4-oxa-1,6-diaza-anthracene-7-carbonyl}-amino)-3-(4′-cyano-biphenyl-4-yl)-propionic acid] | 1000 | 56
Cc1ccccc1S(=O)(=O)N1Cc2cc3c(cc2C[C@H]1C(=O)N[C@@H](Cc1ccc(-c2ccc(C#N)cc2)cc1)C(=O)O)NC(=O)C(c1ccc(OCc2ccc(Cl)c(Cl)c2)cc1)O3 (stereo partly drawn) [Example 37, (S)-3-(4′-Cyano-biphenyl-4-yl)-2-{[(S)-3-[4-(3,4-dichloro-benzyloxy)-phenyl]-2-oxo-6-(toluene-2-sulfonyl)-2,3,5,6,7,8-hexahydro-1H-4-oxa-1,6-diaza-anthracene-7-carbonyl]-amino}-propionic acid] | 490 | 32
N#Cc1ccc(-c2ccc(C[C@H](NC(=O)[C@@H]3Cc4cc5c(cc4CN3C(=O)c3ccccc3)OC(c3ccc(OCc4ccc(Cl)c(C(F)(F)F)c4)cc3)C(=O)N5)C(=O)O)cc2)cc1 (stereo partly drawn) [Example 61, (S)-2-({(S)-6-Benzoyl-3-[4-(4-chloro-3-trifluoromethyl-benzyloxy)-phenyl]-2-oxo-2,3,5,6,7,8-hexahydro-1H-4-oxa-1,6-diaza-anthracene-7-carbonyl}-amino)-3-(4′-cyano-biphenyl-4-yl)-propionic acid] | 850 | 29
CC(C)OC(=O)N1Cc2cc3c(cc2C[C@H]1C(=O)N[C@@H](Cc1ccc(-c2ccc(C#N)cc2)cc1)C(=O)O)NC(=O)C(c1ccc(OCc2ccc(Cl)c(Cl)c2)cc1)O3 (stereo partly drawn) [Example 8, (S)-7-[(S)-1-Carboxy-2-(4′-cyano-biphenyl-4-yl)-ethylcarbamoyl]-3-[4-(3,4-dichloro-benzyloxy)-phenyl]-2-oxo-1,2,3,5,7,8-hexahydro-4-oxa-1,6-diaza-anthracene-6-carboxylic acid isopropyl ester] | 134 | 64
N#Cc1ccc(-c2ccc(C[C@H](NC(=O)[C@@H]3Cc4cc5c(cc4CN3C(=O)c3ccccc3)OC(c3ccc(OCc4cnc(Cl)c(Cl)c4)cc3)C(=O)N5)C(=O)O)cc2)cc1 (stereo partly drawn) [Example 64, (S)-2-({(S)-6-Benzoyl-3-[4-(5,6-dichloro-pyridin-3-ylmethoxy)-phenyl]-2-oxo-2,3,5,6,7,8-hexahydro-1H-4-oxa-1,6-diaza-anthracene-7-carbonyl}-amino)-3-(4′-cyano-biphenyl-4-yl)-propionic acid] | 190 | 36
N#Cc1ccc(-c2ccc(C[C@H](NC(=O)[C@@H]3Cc4cc5c(cc4CN3S(=O)(=O)c3cccs3)OC(c3ccc(OCc4ccc(Cl)c(Cl)c4)cc3)C(=O)N5)C(=O)O)cc2)cc1 (stereo partly drawn) [Example 32, (S)-3-(4′-Cyano-biphenyl-4-yl)-2-{[(S)-3-[4-(3,4-dichloro-benzyloxy)-phenyl]-2-oxo-6-(thiophene-2-sulfonyl)-2,3,5,6,7,8-hexahydro-1H-4-oxa-1,6-diaza-anthracene-7-carbonyl]-amino}-propionic acid] | 700 | 8.3
CC(C)COC(=O)N1Cc2cc3c(cc2C[C@H]1C(=O)N[C@@H](Cc1ccc(-c2ccc(C#N)cc2)cc1)C(=O)O)NC(=O)C(c1ccc(OCc2ccc(Cl)c(Cl)c2)cc1)O3 (stereo partly drawn) [Example 9, (S)-7-[(S)-1-Carboxy-2-(4′-cyano-biphenyl-4-yl)-ethylcarbamoyl]-3-[4-(3,4-dichloro-benzyloxy)-phenyl]-2-oxo-1,2,3,5,7,8-hexahydro-4-oxa-1,6-diaza-anthracene-6-carboxylic acid isobutyl ester] | 500 | 54
CN1C(=O)C(c2ccc(OCc3ccc(Cl)c(Cl)c3)cc2)Oc2cc3c(cc21)C[C@@H](C(=O)N[C@@H](Cc1ccc(-c2ccc(C#N)cc2)cc1)C(=O)O)N(CC#Cc1ccccc1)C3 (stereo partly drawn) [Example 69, (S)-3-(4′-Cyano-biphenyl-4-yl)-2-{[(S)-3-[4-(3,4-dichloro-benzyloxy)-phenyl]-1-methyl-2-oxo-6-(3-phenyl-prop-2-ynyl)-2,3,5,6,7,8-hexahydro-1H-4-oxa-1,6-diaza-anthracene-7-carbonyl]-amino}-propionic acid] | 574 | 51
CSc1nc(CN2Cc3cc4c(cc3C[C@H]2C(=O)N[C@@H](Cc2ccc(-c3ccc(C#N)cc3)cc2)C(=O)O)NC(=O)C(c2ccc(OCc3ccc(Cl)c(Cl)c3)cc2)O4)ccc1C#N (stereo partly drawn) [Example 46, (S)-3-(4′-Cyano-biphenyl-4-yl)-2-({(S)-6-(5-cyano-6-methylsulfanyl-pyridin-2-ylmethyl)-3-[4-(3,4-dichloro-benzyloxy)-phenyl]-2-oxo-2,3,5,6,7,8-hexahydro-1H-4-oxa-1,6-diaza-anthracene-7-carbonyl}-amino)-propionic acid] | 1000 | 22
O=C1Nc2cc3c(cc2OC1c1ccc(OCc2ccc(Cl)c(Cl)c2)cc1)CN(C(=O)c1ccccc1)[C@H](C(=O)N[C@@H](Cc1ccc(-c2ccc(Cl)cc2)cc1)C(=O)O)C3 (stereo partly drawn) [Example 84, (S)-2-({(S)-6-Benzoyl-3-[4-(3,4-dichloro-benzyloxy)-phenyl]-2-oxo-2,3,5,6,7,8-hexahydro-1H-4-oxa-1,6-diaza-anthracene-7-carbonyl}-amino)-3-(4′-chloro-biphenyl-4-yl)-propionic acid] | 920 | 43
CC(C)(C)COC(=O)N1Cc2cc3c(cc2C[C@H]1C(=O)N[C@@H](Cc1ccc(-c2ccc(C#N)cc2)cc1)C(=O)O)NC(=O)C(c1ccc(OCc2ccc(Cl)c(Cl)c2)cc1)O3 (stereo partly drawn) [Example 10, (S)-7-[(S)-1-Carboxy-2-(4′-cyano-biphenyl-4-yl)-ethylcarbamoyl]-3-[4-(3,4-dichloro-benzyloxy)-phenyl]-2-oxo-1,2,3,5,7,8-hexahydro-4-oxa-1,6-diaza-anthracene-6-carboxylic acid 2,2-dimethyl-propyl ester] | 418 | 51
CN1C(=O)C(c2ccc(OCc3ccc(Cl)c(Cl)c3)cc2)Oc2cc3c(cc21)C[C@@H](C(=O)N[C@@H](Cc1ccc(-c2ccc(C#N)cc2)cc1)C(=O)O)N(C1CCCC1)C3 (stereo partly drawn) [Example 74] | 327 | 19
CC[C@@H](c1ccccc1)N1Cc2cc3c(cc2C[C@H]1C(=O)N[C@@H](Cc1ccc(-c2ccc(F)cc2)cc1)C(=O)O)N(C)C(=O)[C@@H](c1ccc(OCc2ccc(Cl)c(Cl)c2)cc1)O3 [Example 92, (S)-2-{[(3R,7S)-3-[4-(3,4-Dichloro-benzyloxy)-phenyl]-1-methyl-2-oxo-6-((S)-1-phenyl-propyl)-2,3,5,6,7,8-hexahydro-1H-4-oxa-1,6-diaza-anthracene-7-carbonyl]-amino}-3-(4′-fluoro-biphenyl-4-yl)-propionic acid] | 723 | 30
N#Cc1ccc(-c2ccc(C[C@H](NC(=O)[C@@H]3Cc4cc5c(cc4CN3S(=O)(=O)c3ccccc3)OC(c3ccc(OCc4ccc(Cl)c(Cl)c4)cc3)C(=O)N5)C(=O)O)cc2)cc1 (stereo partly drawn) [Example 14, (S)-2-({(S)-6-Benzenesulfonyl-3-[4-(3,4-dichloro-benzyloxy)-phenyl]-2-oxo-2,3,5,6,7,8-hexahydro-1H-4-oxa-1,6-diaza-anthracene-7-carbonyl}-amino)-3-(4′-cyano-biphenyl-4-yl)-propionic acid] | 450 | 77
CC[C@@H](c1ccccc1)N1Cc2cc3c(cc2C[C@H]1C(=O)N[C@H](Cc1ccc(-c2ccc(C#N)cc2)cc1)C(=O)O)N(C)C(=O)[C@@H](c1ccc(OCc2ccc(Cl)c(Cl)c2)cc1)O3 [Example 98, (R)-3-(4′-Cyano-biphenyl-4-yl)-2-{[(3R,7S)-3-[4-(3,4-dichloro-benzyloxy)-phenyl]-1-methyl-2-oxo-6-((S)-1-phenyl-propyl)-2,3,5,6,7,8-hexahydro-1H-4-oxa-1,6-diaza-anthracene-7-carbonyl]-amino}-propionic acid] | 626 | 42
CC(C)(C)OC(=O)N1Cc2cc3c(cc2C[C@H]1C(=O)N[C@@H](Cc1ccc(-c2ccc(C#N)cc2)cc1)C(=O)O)NC(=O)C(c1ccc(OCc2ccc(Cl)c(Cl)c2)cc1)O3 (stereo partly drawn) [Example 29, (S)-7-[(S)-1-Carboxy-2-(4′-cyano-biphenyl-4-yl)-ethylcarbamoyl]-3-[4-(3,4-dichloro-benzyloxy)-phenyl]-2-oxo-1,2,3,5,7,8-hexahydro-4-oxa-1,6-diaza-anthracene-6-carboxylic acid tert-butyl ester] | 290 | 17
CC(=O)Nc1nc(C)c(S(=O)(=O)N2Cc3cc4c(cc3C[C@H]2C(=O)N[C@@H](Cc2ccc(-c3ccc(C#N)cc3)cc2)C(=O)O)NC(=O)C(c2ccc(OCc3ccc(Cl)c(Cl)c3)cc2)O4)s1 (single isomer, unassigned) [Example 81] | 70 | 25
N#Cc1ccc(-c2ccc(C[C@H](NC(=O)[C@@H]3Cc4cc5c(cc4CN3C(=O)c3cccc(C(F)(F)F)c3)OC(c3ccc(OCc4ccc(Cl)c(Cl)c4)cc3)C(=O)N5)C(=O)O)cc2)cc1 (stereo partly drawn) [Example 24, (S)-3-(4′-Cyano-biphenyl-4-yl)-2-{[(S)-3-[4-(3,4-dichloro-benzyloxy)-phenyl]-2-oxo-6-(3-trifluoromethyl-benzoyl)-2,3,5,6,7,8-hexahydro-1H-4-oxa-1,6-diaza-anthracene-7-carbonyl]-amino}-propionic acid] | 1600 | 53
